Data: ChEMBL document CHEMBL1201862, “PubChem BioAssay data set” (2004)
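Five compound concentrations were applied to cells in 96-well plates for 48 hours; endpoints were derived by simple linear interpolation of the resulting dose-response curve. At the GI50, growth is halved.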 Activity calls are given as the source filed them. Cut-off read from the data, not from the text of the source: active = GI50 up to about 1.1 µM and inactive = higher.

How the values were obtained:
Test in all cases: NCI tumour cell line growth inhibition, 48 h
TK-10 = test system: TK-10
SF-295 = test system: SF-295
DU-145 = test system: DU-145
SR = test system: SR
SK-MEL-2 = test system: SK-MEL-2
SNB-19 = test system: SNB-19
K562 = test system: K562
U-251 = test system: U-251
SNB-75 = test system: SNB-75
CCRF-CEM = test system: CCRF-CEM
MDA-MB-435 = test system: MDA-MB-435
UO-31 = test system: UO-31
MDA-N = test system: MDA-N
SF-268 = test system: SF-268
NCI-H522 = test system: NCI-H522
M14 = test system: M14
KM12 = test system: KM12
MDA-MB-231 = test system: MDA-MB-231
786-0 = test system: 786-0
OVCAR-3 = test system: OVCAR-3

Structure (SMILES) | GI50 (TK-10) | GI50 (SF-295) | GI50 (DU-145) | GI50 (SR) | GI50 (SK-MEL-2) | GI50 (SNB-19) | GI50 (K562) | GI50 (U-251) | GI50 (SNB-75) | GI50 (CCRF-CEM) | GI50 (MDA-MB-435) | GI50 (UO-31) | GI50 (MDA-N) | GI50 (SF-268) | GI50 (NCI-H522) | GI50 (M14) | GI50 (KM12) | GI50 (MDA-MB-231) | GI50 (786-0) | GI50 (OVCAR-3)
O=C(C=P(c1ccccc1)(c1ccccc1)c1ccccc1)c1ccccc1-c1ccccc1C(=O)C=P(c1ccccc1)(c1ccccc1)c1ccccc1 | < 0.01 µM (active) | 0.0269 µM (active) | 0.0184 µM (active) | 0.0143 µM (active) | 0.0212 µM (active) | 0.0288 µM (active) | < 0.01 µM (active) | 0.0173 µM (active) | 0.0206 µM (active) | < 0.0128 µM (active) | 0.0267 µM (active) | 0.228 µM (active) | 0.0229 µM (active) | 0.0351 µM (active) | 0.014 µM (active) | 0.0352 µM (active) | < 0.01 µM (active) | 0.0215 µM (active) | 0.0344 µM (active) | < 0.01 µM (active)
C/C(=N\Nc1nc2ccccc2s1)c1ccc2ccccc2n1 | 88.7 µM (inactive) | > 100 µM (inactive) | > 100 µM (inactive) | 2 µM (inactive) | 58.5 µM (inactive) | > 100 µM (inactive) | – | > 100 µM (inactive) | 15.5 µM (inactive) | 25.7 µM (inactive) | > 100 µM (inactive) | 53.7 µM (inactive) | > 100 µM (inactive) | 28.8 µM (inactive) | 32.3 µM (inactive) | 46.2 µM (inactive) | 59.2 µM (inactive) | 46 µM (inactive) | > 100 µM (inactive) | 34.8 µM (inactive)
O=C1c2cccc3cc([N+](=O)[O-])cc(c23)C(=O)N1c1ccc(OCCN2CCCC2)cc1 | 22.4 µM (inactive) | 20.8 µM (inactive) | 23.3 µM (inactive) | 2.23 µM (inactive) | 24.5 µM (inactive) | 26.1 µM (inactive) | – | 16.1 µM (inactive) | 22 µM (inactive) | 18.6 µM (inactive) | 19.4 µM (inactive) | 13.6 µM (inactive) | 30.8 µM (inactive) | 22 µM (inactive) | 10.8 µM (inactive) | 20 µM (inactive) | 22.2 µM (inactive) | 43.2 µM (inactive) | 10.6 µM (inactive) | –
Cc1cc2ccccc2oc(=O)/c1=N\Nc1ccccc1 | – | 32.6 µM (inactive) | > 100 µM (inactive) | > 100 µM (inactive) | > 100 µM (inactive) | 36.2 µM (inactive) | 14.5 µM (inactive) | 39.9 µM (inactive) | 20.9 µM (inactive) | > 100 µM (inactive) | > 100 µM (inactive) | 24.9 µM (inactive) | > 100 µM (inactive) | – | 65.5 µM (inactive) | > 100 µM (inactive) | 58.2 µM (inactive) | 25.6 µM (inactive) | 25.6 µM (inactive) | > 100 µM (inactive)
COc1cc(/C=C/C2=NN(c3cccc(S(=O)(=O)O)c3)C3(C2)SCC(=O)N3c2nc3ccccc3s2)cc(OC)c1OC (stereo not given) | 29.9 µM (inactive) | – | 29.4 µM (inactive) | 23.8 µM (inactive) | 42.1 µM (inactive) | 31.9 µM (inactive) | 41.1 µM (inactive) | 33 µM (inactive) | 63.5 µM (inactive) | 28.8 µM (inactive) | 23 µM (inactive) | 36.1 µM (inactive) | 39.4 µM (inactive) | 39.4 µM (inactive) | 18 µM (inactive) | 74.8 µM (inactive) | 38.5 µM (inactive) | 43.3 µM (inactive) | 18.4 µM (inactive) | –
COc1ccc(/C=C2\CCC(CNc3cc(C)on3)C2=O)cc1 (stereo not given) | > 84.9 µM (inactive) | 74.6 µM (inactive) | > 83.6 µM (inactive) | > 100 µM (inactive) | > 79.3 µM (inactive) | 64.4 µM (inactive) | > 100 µM (inactive) | > 60.1 µM (inactive) | 29.4 µM (inactive) | > 100 µM (inactive) | > 100 µM (inactive) | > 93.1 µM (inactive) | > 100 µM (inactive) | > 70 µM (inactive) | 79.8 µM (inactive) | > 100 µM (inactive) | > 100 µM (inactive) | > 82 µM (inactive) | > 100 µM (inactive) | > 100 µM (inactive)
CCC(C)(C)C1CCC2c3c([nH]c4ccccc34)C3C(=O)N(c4ccc(OC)cc4)C(=O)C3C2C1 (stereo not given) | 16.7 µM (inactive) | 20.8 µM (inactive) | 5.4 µM (inactive) | 39.8 µM (inactive) | 16.7 µM (inactive) | 25.6 µM (inactive) | 5.16 µM (inactive) | 11.5 µM (inactive) | 16.2 µM (inactive) | – | 11 µM (inactive) | 24.4 µM (inactive) | 18.7 µM (inactive) | 15 µM (inactive) | 7.16 µM (inactive) | 18.8 µM (inactive) | 3.48 µM (inactive) | 13 µM (inactive) | 10.6 µM (inactive) | 2.19 µM (inactive)
NC(=O)c1cc2ccccc2o/c1=N/O | > 100 µM (inactive) | > 100 µM (inactive) | > 100 µM (inactive) | > 100 µM (inactive) | > 100 µM (inactive) | > 100 µM (inactive) | > 100 µM (inactive) | > 100 µM (inactive) | > 100 µM (inactive) | > 100 µM (inactive) | 54.1 µM (inactive) | 38.7 µM (inactive) | > 100 µM (inactive) | > 100 µM (inactive) | 61.4 µM (inactive) | > 100 µM (inactive) | > 100 µM (inactive) | > 100 µM (inactive) | > 100 µM (inactive) | > 100 µM (inactive)
CC(=O)N1N=C(c2ccc3ccccc3c2O)CC1C(=O)c1ccco1 (stereo not given) | 30.3 µM (inactive) | 24 µM (inactive) | 47.9 µM (inactive) | 3.78 µM (inactive) | 18.7 µM (inactive) | – | 11.6 µM (inactive) | 27.7 µM (inactive) | 14.3 µM (inactive) | 6.24 µM (inactive) | 14.7 µM (inactive) | 23.1 µM (inactive) | 20.6 µM (inactive) | 14.4 µM (inactive) | 17.9 µM (inactive) | 19.3 µM (inactive) | 10.8 µM (inactive) | 80.5 µM (inactive) | 45 µM (inactive) | 20.3 µM (inactive)
CCOP(=O)(OCC)/C(C#N)=C/c1cccn1C(C)C | > 100 µM (inactive) | > 100 µM (inactive) | > 100 µM (inactive) | > 100 µM (inactive) | > 100 µM (inactive) | > 100 µM (inactive) | > 100 µM (inactive) | > 100 µM (inactive) | > 100 µM (inactive) | – | > 100 µM (inactive) | > 100 µM (inactive) | > 100 µM (inactive) | > 100 µM (inactive) | > 100 µM (inactive) | > 100 µM (inactive) | > 100 µM (inactive) | > 100 µM (inactive) | > 100 µM (inactive) | > 100 µM (inactive)
